Reference: patent publication US11407736B2 (priority 2019, dated 2022)
pIC50: −log10 of the molar value. Read-outs that look alike come from different tables or passages of the source.

Legend:
RIPK1 = RIPK1 (Homo sapiens (Human), UniProt Q13546); experiment: RIPK1 ADP-Glo biochemical kinase assay
Procedure: The final reaction volume was 5.0ul.
Adding 5 μl of ADP-Glo™ terminated the reaction.

L929 cells = experiment: L929 cell necroptosis assay (TNFa + zVAD, CellTiter-Glo); format: cell-based, murine
How it was run: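 Necroptosis was read as CellTiter-Glo luminescence 18 hours after TNFa stimulation at 37° C, 5% CO2. Prior to that, L929 cells (10K/well, plated 18 h) received fresh medium with 40 uM zVAD-fmk plus 4-fold serially diluted compound.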

U937 cells = experiment: U937 cell necroptosis assay (TNFa + zVAD, CellTiter-Glo); format: cell-based, human
How it was run: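 Necroptosis was induced with TNFa at 2 ng/mL final for 18 h at 37 °C, following 1 h compound pre-incubation in the presence of zVAD-fmk (60 uM for U937 plating medium, 40 uM for L929 medium). Luminescent CellTiter-Glo signal gave relative cell survival.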

[1] = read-out: RIPK1 ADP-Glo Kinase (IC50)
[2] = Mus musculus, L929, L929 cells, TNFa + zVAD, read-out: L929-CTG-recovery, L929, TNFa + zVAD (IC50)
[3] = Homo sapiens, U-937, U937 cells, TNFa + zVAD, read-out: U937 Zvad TNF CTG Recovery, U937, TNFa + zVAD (IC50)
[4] = Mus musculus, L929, read-out: L929-CTG-recovery, L929, TNFa + zVAD (IC50), L929 cells, TNFa + zVAD
[5] = Homo sapiens, U-937, read-out: U937 Zvad TNF CTG Recovery, U937, TNFa + zVAD (IC50), U937 cells, TNFa + zVAD
[6] = L929 cells, TNFa + zVAD, read-out: L929-CTG-recovery, L929, TNFa + zVAD (IC50)

Sequence of RIPK1 (Q13546 whole entry, species assumed): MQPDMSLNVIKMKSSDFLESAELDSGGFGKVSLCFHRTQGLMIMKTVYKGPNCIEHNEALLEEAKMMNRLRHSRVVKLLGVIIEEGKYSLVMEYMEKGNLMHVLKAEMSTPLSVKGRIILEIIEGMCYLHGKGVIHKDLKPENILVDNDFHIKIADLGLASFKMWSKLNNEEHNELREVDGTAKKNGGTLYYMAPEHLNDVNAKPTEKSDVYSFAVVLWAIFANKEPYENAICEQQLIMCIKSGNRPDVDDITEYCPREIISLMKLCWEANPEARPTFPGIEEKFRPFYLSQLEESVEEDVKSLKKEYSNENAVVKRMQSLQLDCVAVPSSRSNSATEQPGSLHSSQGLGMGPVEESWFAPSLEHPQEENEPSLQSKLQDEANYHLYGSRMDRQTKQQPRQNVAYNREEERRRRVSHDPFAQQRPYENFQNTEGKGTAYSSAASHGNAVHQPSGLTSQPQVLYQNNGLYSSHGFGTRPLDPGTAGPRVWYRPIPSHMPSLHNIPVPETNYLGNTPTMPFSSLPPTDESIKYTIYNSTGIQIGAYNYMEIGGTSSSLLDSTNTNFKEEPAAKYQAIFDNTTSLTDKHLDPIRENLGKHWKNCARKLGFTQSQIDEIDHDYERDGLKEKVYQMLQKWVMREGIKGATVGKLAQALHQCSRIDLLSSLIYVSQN

Row | SMILES | pIC50 (RIPK1; [1]) | pIC50 (L929 cells; [2]) | pIC50 (U937 cells; [3]) | pIC50 (L929 cells; [4]) | pIC50 (U937 cells; [5]) | pIC50 (L929 cells; [6]) | pIC50 (U937 cells; U937 cells, TNFa + zVAD, read-out: U937 Zvad TNF CTG Recovery, U937, TNFa + zVAD (IC50)) | pIC50 (RIPK1)
1 | CN1C(=O)[C@@H](NC(=O)c2cc(Oc3ccccc3)ccn2)COc2ccc(C#CC3(O)CCN(C(=O)c4cc(Oc5ccccc5)ccn4)CC3)cc21 [Compound I-131, (S)—N-(7-((4-hydroxy-1-(4-phenoxypicolinoyl)piperidin-4-yl)ethynyl)-5-methyl-4-oxo-2,3,4,5-tetrahydrobenzo[b][1,4]oxazepin-3-yl)-4-phenoxypicolinamide] | 6.35 | 7.18 | 8.43 |  |  |  |  | 
2 | CN1C(=O)[C@@H](NC(=O)c2cc(Oc3ccccc3)ccn2)COc2ccc(C#CC3(O)CCNCC3)cc21 [Compound I-132, (S)—N-(7-((4-hydroxypiperidin-4-yl)ethynyl)-5-methyl-4-oxo-2,3,4,5-tetrahydrobenzo[b][1,4]oxazepin-3-yl)-4-phenoxypicolinamide] | 7.52 | 5.34 | 7.44 |  |  |  |  | 
3 | CC(=O)N1CCC(O)(C#Cc2ccc3c(c2)N(C)C(=O)[C@@H](NC(=O)c2cc(Oc4ccc(F)cc4)ccn2)CO3)CC1 [Compound I-134, (S)—N-(7-((l-acetyl-4-hydroxypiperidin-4-yl)ethynyl)-5-methyl-4-oxo-2,3,4,5-tetrahydrobenzo[b][1,4]oxazepin-3-yl)-4-(4-fluorophenoxy)picolinamide] | 7.28 | 6.22 | 7.56 |  |  |  |  | 
4 | CN1CCC(O)(C#Cc2ccc3c(c2)N(C)C(=O)[C@@H](NC(=O)c2cc(Oc4ccc(F)cc4)ccn2)CO3)CC1 [Compound I-135, (S)-4-(4-fluorophenoxy)-N-(7-((4-hydroxy-1-methylpiperidin-4-yl)ethynyl)-5-methyl-4-oxo-2,3,4,5-tetrahydrobenzo[b][1,4]oxazepin-3-yl)picolinamide] | 6.96 | 5.58 | 6.65 |  |  |  |  | 
5 | CN1C(=O)[C@@H](NC(=O)c2cc(Oc3ccccc3)ccn2)COc2ccc(C#CC3(O)CNC3)cc21 [Compound I-136, (S)—N-(7-((3-hydroxyazetidin-3-yl)ethynyl)-5-methyl-4-oxo-2,3,4,5-tetrahydrobenzo[b][1,4]oxazepin-3-yl)-4-phenoxypicolinamide] | 7.57 | 5.30 | 7.82 |  |  |  |  | 
6 | CN1CC(O)(C#Cc2ccc3c(c2)N(C)C(=O)[C@@H](NC(=O)c2cc(Oc4ccccc4)ccn2)CO3)C1 [Compound I-137, (S)—N-(7-((3-hydroxy-1-methylazetidin-3-yl)ethynyl)-5-methyl-4-oxo-2,3,4,5-tetrahydrobenzo[b][1,4]oxazepin-3-yl)-4-phenoxypicolinamide] | 7.63 |  |  | 6.48 | 8.30 |  |  | 
7 | C=C(C#Cc1ccc2c(c1)N(C)C(=O)[C@@H](NC(=O)c1cc(Oc3ccc(F)cc3)ccn1)CO2)CCNC [Compound I-138, (S)-4-(4-fluorophenoxy)-N-(5-methyl-7-(5-(methylamino)-3-methylenepent-1-yn-1-yl)-4-oxo-2,3,4,5-tetrahydrobenzo[b][1,4]oxazepin-3-yl)picolinamide] | 7.11 | 5.50 | 6.91 |  |  |  |  | 
8 | CN1C(=O)[C@@H](NC(=O)c2cc(Oc3ccccc3)ccn2)COc2ccc(C#CC(C)(C)CN3CCOCC3)cc21 [Compound I-140, (S)—N-(7-(3,3-dimethyl-4-morpholinobut-1-yn-1-yl)-5-methyl-4-oxo-2,3,4,5-tetrahydrobenzo[b][1,4]oxazepin-3-yl)-4-phenoxypicolinamide] | 6.91 | 6.96 | 8.34 |  |  |  |  | 
9 | C[C@H](NC(=O)OC(C)(C)C)C(=O)OCC(C)(C)C#Cc1ccc2c(c1)N(C)C(=O)[C@@H](NC(=O)c1cc(Oc3ccccc3)ccn1)CO2 [Compound I-141, tert-butyl ((S)-1-((2,2-dimethyl-4-((S)-5-methyl-4-oxo-3-(4-phenoxypicolinamido)-2,3,4,5-tetrahydrobenzo[b][1,4]oxazepin-7-yl)but-3-yn-1-yl)oxy)-1-oxopropan-2-yl)-12-azanecarboxylate] | 6.38 |  |  |  |  | 6.92 | 8.66 | 
10 | C[C@H](N)C(=O)OCC(C)(C)C#Cc1ccc2c(c1)N(C)C(=O)[C@@H](NC(=O)c1cc(Oc3ccccc3)ccn1)CO2 [Compound I-142, 2,2-dimethyl-4-((S)-5-methyl-4-oxo-3-(4-phenoxypicolinamido)-2,3,4,5-tetrahydrobenzo[b][1,4]oxazepin-7-yl)but-3-yn-1-yl L-alaninate] | 7.62 | 7.11 | 8.85 |  |  |  |  | 
11 | CN1C(=O)[C@@H](NC(=O)c2cc(Oc3ccccc3)ccn2)COc2ccc(C#CC(C)(C)COC(=O)CCC(=O)O)cc21 [Compound I-144, (S)-4-((2,2-dimethyl-4-(5-methyl-4-oxo-3-(4-phenoxypicolinamido)-2,3,4,5-tetrahydrobenzo[b][1,4]oxazepin-7-yl)but-3-yn-1-yl)oxy)-4-oxobutanoic acid] | 7.66 | 6.81 | 8.92 |  |  |  |  | 
12 | CC(=O)O[C@@H](C(=O)O)[C@@H](OC(C)=O)C(=O)OCC(C)(C)C#Cc1ccc2c(c1)N(C)C(=O)[C@@H](NC(=O)c1cc(Oc3ccccc3)ccn1)CO2 [Compound I-145, (2R,3R)-2,3-diacetoxy-4-((2,2-dimethyl-4-((S)-5-methyl-4-oxo-3-(4-phenoxypicolinamido)-2,3,4,5-tetrahydrobenzo[b][1,4]oxazepin-7-yl)but-3-yn-1-yl)oxy)-4-oxobutanoic acid] | 7.56 | 5.52 | 8.07 |  |  |  |  | 
13 | CN1CC(F)(C#Cc2ccc3c(c2)N(C)C(=O)[C@@H](NC(=O)c2cc(Oc4ccccc4)ccn2)CO3)C1 [Compound I-146] | 7.76 |  |  | 7.74 | 9.40 |  |  | 
14 | CN1C(=O)[C@@H](NC(=O)c2cc(Oc3ccccc3)ccn2)COc2ccc(C#CC3(OC(=O)CCC(=O)O)COC3)cc21 [Compound I-147, (S)-4-((3-((5-methyl-4-oxo-3-(4-phenoxypicolinamido)-2,3,4,5-tetrahydrobenzo[b][1,4]oxazepin-7-yl)ethynyl)oxetan-3-yl)oxy)-4-oxobutanoic acid] | 7.76 |  | 8.92 |  |  | 6.81 |  | 
15 | CN1C(=O)[C@@H](NC(=O)c2cc(Oc3ccc(F)cc3)ccn2)COc2ccc(C#CC(C)(C)CO)cc21 [Compound I-148, (S)-4-(4-fluorophenoxy)-N-(7-(4-hydroxy-3,3-dimethylbut-1-yn-1-yl)-5-methyl-4-oxo-2,3,4,5-tetrahydrobenzo[b][1,4]oxazepin-3-yl)picolinamide] | 7.47 | 6.44 | 8.28 |  |  |  |  | 
16 | CN1C(=O)[C@@H](NC(=O)c2cc(Oc3ccccc3)ccn2)COc2ccc(CN3CCC4(CCOCC4)CC3)cc21 [Compound I-149, (S)—N-(7-((3-oxa-9-azaspiro[5.5]undecan-9-yl)methyl)-5-methyl-4-oxo-2,3,4,5-tetrahydrobenzo[b][1,4]oxazepin-3-yl)-4-phenoxypicolinamide] |  | 4.94 | 7.52 |  |  |  |  | 7.40
17 | CN1C(=O)[C@@H](NC(=O)c2cc(Oc3ccccc3)ccn2)COc2ccc(C#CC3(O)CN(C(=O)C(F)(F)F)C3)cc21 [Compound I-151, (S)—N-(7-((3-hydroxy-1-(2,2,2-trifluoroacetyl)azetidin-3-yl)ethynyl)-5-methyl-4-oxo-2,3,4,5-tetrahydrobenzo[b][1,4]oxazepin-3-yl)-4-phenoxypicolinamide] | 7.26 |  |  | 5.97 | 7.77 |  |  | 
18 | CN1C(=O)[C@@H](NC(=O)c2cc(OC3CCC3)ccn2)COc2ccc(C#CC(C)(C)O)cc21 [Compound I-152, (S)-4-cyclobutoxy-N-(7-(3-hydroxy-3-methylbut-1-yn-1-yl)-5-methyl-4-oxo-2,3,4,5-tetrahydrobenzo[b][1,4]oxazepin-3-yl)picolinamide] | 7.99 | 5.60 | 7.41 |  |  |  |  | 
19 | CN1C(=O)[C@@H](NC(=O)c2cc(OC3CCC3)ccn2)COc2ccc(C#CC3(O)COC3)cc21 [Compound I-153, (S)-4-cyclobutoxy-N-(7-((3-hydroxyoxetan-3-yl)ethynyl)-5-methyl-4-oxo-2,3,4,5-tetrahydrobenzo[b][1,4]oxazepin-3-yl)picolinamide] | 7.49 | 5.91 | 7.79 |  |  |  |  | 
20 | COC1(C#Cc2ccc3c(c2)N(C)C(=O)[C@@H](NC(=O)c2cc(Oc4ccccc4)ccn2)CO3)CNC1 [Compound I-154, (S)—N-(7-((3-methoxyazetidin-3-yl)ethynyl)-5-methyl-4-oxo-2,3,4,5-tetrahydrobenzo[b][1,4]oxazepin-3-yl)-4-phenoxypicolinamide] | 7.57 | 6.18 | 8.46 |  |  |  |  | 
21 | CN1C(=O)[C@@H](NC(=O)c2cc(OC3CCCC3)ccn2)COc2ccc(C#CC(C)(C)O)cc21 [Compound I-156, (S)-4-(cyclopentyloxy)-N-(7-(3-hydroxy-3-methylbut-1-yn-1-yl)-5-methyl-4-oxo-2,3,4,5-tetrahydrobenzo[b][1,4]oxazepin-3-yl)picolinamide] | 7.56 | 4.99 | 7.26 |  |  |  |  | 
